Measurements from the NIST ThermoML archive (doi:10.1021/je500513b).
± gives the expanded uncertainty stated by the source.

Experiment: mn = molality of the nth substance listed, in mol/kg
Conditions: for surface tension liquid-gas: Pendant drop shape; for electrical conductivity: 100 kPa, Liquid, Mettler Toledo inLab 710

CCCCCCCCCCCCCC[N+](C)(C)CCCC[N+](C)(C)CCCCCCCCCCCCCC.[Br-].[Br-] + O
Conditions | electrical conductivity, 298.15 K [S/m] | electrical conductivity, 303.15 K [S/m] | electrical conductivity, 308.15 K [S/m] | electrical conductivity, 313.15 K [S/m] | electrical conductivity, 318.15 K [S/m] | electrical conductivity, 323.15 K [S/m] | surface tension liquid-gas, 298.15 K [mN/m]
m1 = 1e-05 | – | – | – | – | – | – | 58.66 ± 6.8
m1 = 2e-05 | – | – | – | – | – | – | 56.16 ± 11
m1 = 3e-05 | – | – | – | – | – | – | 51.87 ± 4.7
m1 = 4e-05 | – | – | – | – | – | – | 50.69 ± 4.2
m1 = 5e-05 | – | – | – | – | – | – | 49.28 ± 3.2
m1 = 6e-05 | – | – | – | – | – | – | 47.86 ± 3.4
m1 = 7e-05 | – | – | – | – | – | – | 45.48 ± 3.1
m1 = 8e-05 | – | – | – | – | – | – | 44.02 ± 2.9
m1 = 9e-05 | – | – | – | – | – | – | 43.09 ± 2.4
m1 = 0.0001 | – | – | – | – | – | – | 42.13 ± 2.2
m1 = 0.000111 | 0.00256 ± 0.0004 | – | 0.00315 ± 0.00053 | 0.00337 ± 0.00058 | – | 0.00418 ± 0.00066 | –
m1 = 0.000118 | 0.0027 ± 0.00041 | 0.00296 ± 0.00044 | 0.00332 ± 0.0005 | 0.00354 ± 0.00056 | 0.00387 ± 0.00057 | 0.00442 ± 0.00058 | –
m1 = 0.00012 | – | – | – | – | – | – | 39.63 ± 1.6
m1 = 0.000125 | 0.00286 ± 0.00038 | 0.00313 ± 0.0004 | 0.00351 ± 0.00045 | 0.00375 ± 0.00057 | 0.00411 ± 0.00057 | 0.00465 ± 0.00059 | –
m1 = 0.000133 | 0.003 ± 0.00038 | 0.00333 ± 0.00034 | 0.00371 ± 0.00046 | 0.00401 ± 0.00056 | 0.00436 ± 0.00046 | 0.0049 ± 0.00062 | –
m1 = 0.00014 | – | – | – | – | – | – | 39.01 ± 0.48
m1 = 0.000143 | 0.00321 ± 0.00034 | 0.00354 ± 0.0004 | 0.00392 ± 0.00045 | 0.00426 ± 0.00056 | 0.00463 ± 0.00058 | 0.00514 ± 0.0006 | –
m1 = 0.00015 | 0.00333 ± 0.00031 | 0.00365 ± 0.00037 | 0.00407 ± 0.00042 | 0.00448 ± 0.00054 | 0.00486 ± 0.00056 | 0.00538 ± 0.00061 | –
m1 = 0.000158 | 0.00344 ± 0.00027 | 0.00377 ± 0.00032 | 0.00423 ± 0.00038 | 0.00468 ± 0.0005 | 0.005 ± 0.00053 | 0.00563 ± 0.0006 | –
m1 = 0.000167 | 0.00354 ± 0.00023 | 0.00391 ± 0.00031 | 0.00442 ± 0.00038 | 0.00491 ± 0.00049 | 0.00524 ± 0.00055 | 0.00588 ± 0.00062 | –
m1 = 0.00017 | – | – | – | – | – | – | 38.87 ± 0.45
m1 = 0.000176 | 0.00364 ± 0.00021 | 0.00405 ± 0.00027 | 0.00458 ± 0.00035 | 0.00514 ± 0.00047 | 0.00548 ± 0.00047 | 0.0062 ± 0.00062 | –
m1 = 0.000188 | 0.00373 ± 0.00018 | 0.00418 ± 0.00023 | 0.00475 ± 0.00029 | 0.0054 ± 0.00037 | 0.00576 ± 0.00046 | 0.00653 ± 0.00062 | –
m1 = 0.000197 | 0.00382 ± 0.00017 | 0.00427 ± 0.0002 | 0.00487 ± 0.00027 | 0.00557 ± 0.00036 | 0.00593 ± 0.0004 | 0.00682 ± 0.0006 | –
m1 = 0.0002 | – | – | – | – | – | – | 38.31 ± 0.45
m1 = 0.000207 | 0.0039 ± 0.00017 | 0.00436 ± 0.0002 | 0.005 ± 0.00027 | 0.00574 ± 0.00034 | 0.00612 ± 0.00041 | 0.00712 ± 0.00056 | –
m1 = 0.000218 | 0.00399 ± 0.00016 | 0.00447 ± 0.00018 | 0.00514 ± 0.00025 | 0.00588 ± 0.00029 | 0.00632 ± 0.00035 | 0.00745 ± 0.00049 | –
m1 = 0.000231 | 0.00409 ± 0.00015 | 0.00457 ± 0.00019 | 0.00529 ± 0.00023 | 0.00606 ± 0.00024 | 0.00655 ± 0.00035 | 0.00772 ± 0.00042 | –
m1 = 0.00024 | 0.00416 ± 0.00015 | 0.00465 ± 0.00017 | 0.00539 ± 0.00022 | 0.00617 ± 0.00025 | 0.00667 ± 0.0003 | 0.00786 ± 0.00037 | –
m1 = 0.00025 | 0.00422 ± 0.00015 | 0.00473 ± 0.00017 | 0.00549 ± 0.00022 | 0.00628 ± 0.00024 | 0.0068 ± 0.0003 | 0.00805 ± 0.00035 | –
m1 = 0.000261 | 0.0043 ± 0.00015 | 0.00482 ± 0.00015 | 0.0056 ± 0.0002 | 0.00641 ± 0.00023 | 0.00694 ± 0.00025 | 0.00823 ± 0.00032 | –
m1 = 0.000273 | 0.00438 ± 0.00015 | 0.00489 ± 0.00016 | 0.00572 ± 0.0002 | 0.00652 ± 0.00022 | 0.00708 ± 0.00024 | 0.00839 ± 0.0003 | –
m1 = 0.000286 | 0.00448 ± 0.00015 | 0.00499 ± 0.00023 | 0.00584 ± 0.0002 | 0.00667 ± 0.00015 | 0.00724 ± 0.00045 | 0.00858 ± 0.00029 | –
m1 = 0.0003 | 0.00459 ± 0.00016 | 0.00512 ± 0.00025 | 0.00597 ± 0.00019 | 0.00681 ± 0.00017 | 0.0074 ± 0.00044 | 0.00877 ± 0.00029 | 37.21 ± 0.43
